# Experimental data published in ChEMBL document CHEMBL4382202, “1-(2-Hydroxybenzoyl)-thiosemicarbazides are promising antimicrobial agents targeting d-alanine-d-alanine ligase in bacterio” (Eur J Med Chem, 2018).
# Calls of active or inactive are those of the source. No cut-off for these calls is given here.
# Key:
# [1] = molecular target: T1, D-alanine--D-alanine ligase (Enterococcus faecalis (strain ATCC 700802 / V583)) (UniProt Q47758); test: Mixed non-competitive type inhibition of Enterococcus faecalis JH2-2 C-terminal 6His-tagged DdlB expressed in Escherichia coli LMG194 at 1 to 10 uM preincubated for 30 mins followed increasing substrate and fixed ATP addition and measured after 20 mins by Biomol Green reagent assay
# T1 sequence (whole entry): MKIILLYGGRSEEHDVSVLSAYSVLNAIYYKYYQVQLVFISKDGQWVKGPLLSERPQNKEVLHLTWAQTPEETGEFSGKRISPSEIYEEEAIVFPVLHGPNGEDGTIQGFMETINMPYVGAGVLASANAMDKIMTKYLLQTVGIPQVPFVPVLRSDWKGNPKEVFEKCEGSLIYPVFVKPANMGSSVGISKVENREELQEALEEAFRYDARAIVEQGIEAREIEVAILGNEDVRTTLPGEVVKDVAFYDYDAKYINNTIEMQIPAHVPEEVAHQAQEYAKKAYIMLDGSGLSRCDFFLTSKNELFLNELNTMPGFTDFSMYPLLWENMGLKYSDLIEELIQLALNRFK
# [2] = molecular target: Tyrosine-protein kinase Lck (Homo sapiens) (UniProt P06239); test: Inhibition of human recombinant Lck at 10 uM using Ulight-Poly GAT[EAY(1:1:1)]n as substrate after 10 mins by LANCE analysis relative to control
# [3] = molecular target: D-3-phosphoglycerate dehydrogenase (Homo sapiens) (UniProt O43175); test: Inhibition of human recombinant C-terminal His-tagged PHGDH (1 to 533 residues) expressed in Escherichia coli at 10 uM using 3-phosphoglycerate as substrate relative to control
# [4] = system: Staphylococcus aureus; test: Inhibition of Ddl in Staphylococcus aureus ATCC 25923 assessed as increase in [D-Ala]/[D-Ala-D-Ala] ratio at 2 times MIC after 30 mins by LC-MS/MS analysis
# [5] = molecular target: Indoleamine 2,3-dioxygenase 1 (Homo sapiens) (UniProt P14902); test: Inhibition of human IDO at 10 uM using L-tryptophan as substrate after 30 mins by Ehrlich's reagent based assay relative to control
# [6] = molecular target: Angiotensin-converting enzyme (Homo sapiens) (UniProt P12821); test: Inhibition of human recombinant ACE at 10 uM using Abz-FRK(Dnp)-P-OH as substrate after 30 mins by fluorimetric analysis relative to control
# [7] = molecular target: T1, D-alanine--D-alanine ligase (Enterococcus faecalis (strain ATCC 700802 / V583)); test: Reversible inhibition of Enterococcus faecalis JH2-2 C-terminal 6His-tagged DdlB expressed in Escherichia coli LMG194 at 3 uM preincubated for 30 mins followed by 10 times dilution followed by 20 mins incubation with substrate by Biomol Green reagent assay
# [8] = molecular target: Monoglyceride lipase (Homo sapiens) (UniProt Q99685); test: Inhibition of human MAGL at 10 uM relative to control
# [9] = molecular target: GABA-A receptor; alpha-1/beta-2/gamma-2 (Homo sapiens) (UniProt P14867+P47870+P18507); test: Displacement of [3H]muscimol from recombinant human GABAalpha1beta2gamma2 at 10 uM after 120 mins by scintillation counting method relative to control; type: protein-complex assay
# [10] = molecular target: Cannabinoid receptor 1 (Homo sapiens) (UniProt P21554); test: Displacement of [3H]CP 55940 from human recombinant CB1 receptor at 10 uM after 120 mins by scintillation counting analysis relative to control
# [11] = molecular target: DNA gyrase (Escherichia coli) (UniProt P0AES6+P0AES4); test: Inhibition of Escherichia coli DNA gyrase at 10 uM using supercoiled pBR322 DNA as substrate after 1 hr by ethidium bromide staining-based agarose gel electrophoresis relative to control; type: protein-complex assay
# [12] = molecular target: 5-hydroxytryptamine receptor 1A (Homo sapiens) (UniProt P08908); test: Displacement of [3H]8-OH-DPAT from recombinant human 5-HT1A receptor at 10 uM after 60 mins by scintillation counting analysis relative to control
# [13] = molecular target: Carbonic anhydrase 2 (Homo sapiens) (UniProt P00918); test: Inhibition of human carbonic anhydrase 2 at 10 uM using 4-nitrophenyl acetate as substrate after 20 mins by spectrophotometric analysis relative to control
# [14] = molecular target: Muscarinic acetylcholine receptor M1 (Homo sapiens) (UniProt P11229); test: Displacement of […] from human recombinant M1 receptor at 10 uM after 60 mins by scintillation counting analysis relative to control
# [15] = molecular target: T1, D-alanine--D-alanine ligase (Enterococcus faecalis (strain ATCC 700802 / V583)); test: Inhibition of Enterococcus faecalis JH2-2 C-terminal 6His-tagged DdlB expressed in Escherichia coli LMG194 assessed as Vmax/Km of D-Ala at 10 uM by Biomol Green reagent assay (reference value: 11.02 /min)
# [16] = molecular target: Acetylcholinesterase (Homo sapiens) (UniProt P22303); test: Inhibition of human recombinant acetylcholinesterase at 10 uM using acetylthiocholine as substrate after 30 mins by spectrophotometric analysis relative to control
# [17] = molecular target: T1, D-alanine--D-alanine ligase (Enterococcus faecalis (strain ATCC 700802 / V583)); test: Inhibition of Enterococcus faecalis JH2-2 C-terminal 6His-tagged DdlB expressed in Escherichia coli LMG194 assessed as Vmax/Km of ATP at 1 uM by Biomol Green reagent assay (reference value: 0.3 /min)
# [18] = system: Staphylococcus aureus; test: Bactericidal activity against Staphylococcus aureus ATCC 25923 assessed as reduction of bacterial load at 2 to 5 times MIC after 24 hrs by time kill assay; type: functional, organism-based
# [19] = system: Pseudomonas aeruginosa; test: Antibacterial activity against Pseudomonas aeruginosa PAO1 after 18 to 24 hrs by microdilution assay; type: functional, organism-based
# [20] = molecular target: cGMP-inhibited 3',5'-cyclic phosphodiesterase 3A (Homo sapiens) (UniProt Q14432); test: Inhibition of human recombinant PDE3A using [3H]cAMP at 10 uM after 20 mins by scintillation counting analysis relative to control
# [21] = molecular target: Prostaglandin G/H synthase 1 (Homo sapiens) (UniProt P23219); test: Inhibition of human recombinant COX1 at 10 uM using arachidonic acid as substrate after 3 mins by fluorimetric analysis relative to control
# [22] = molecular target: T1, D-alanine--D-alanine ligase (Enterococcus faecalis (strain ATCC 700802 / V583)); test: Inhibition of Enterococcus faecalis JH2-2 C-terminal 6His-tagged DdlB expressed in Escherichia coli LMG194 assessed as Vmax/Km of D-Ala at 1 uM by Biomol Green reagent assay (reference value: 11.02 /min)
# [23] = system: Escherichia coli; test: Antibacterial activity against Escherichia coli ATCC 25922 after 18 to 24 hrs by microdilution assay; type: functional, organism-based
# [24] = molecular target: Prothrombin (Homo sapiens) (UniProt P00734); test: Inhibition of human thrombin at 10 uM using Z-GPR-AMC as substrate after 30 mins by fluorimetric analysis relative to control
# [25] = molecular target: T1, D-alanine--D-alanine ligase (Enterococcus faecalis (strain ATCC 700802 / V583)); test: Inhibition of Enterococcus faecalis JH2-2 C-terminal 6His-tagged DdlB expressed in Escherichia coli LMG194 assessed as Vmax/Km of ATP at 10 uM by Biomol Green reagent assay (reference value: 0.3 /min)
# [26] = molecular target: T1, D-alanine--D-alanine ligase (Enterococcus faecalis (strain ATCC 700802 / V583)); test: Inhibition of Enterococcus faecalis JH2-2 C-terminal 6His-tagged DdlB expressed in Escherichia coli LMG194 at 10 uM preincubated for 30 mins followed by substrate addition and measured after 20 mins by Biomol Green reagent assay relative to control
# Muscarinic acetylcholine receptor M1 (Homo sapiens), sequence (P11229 whole entry): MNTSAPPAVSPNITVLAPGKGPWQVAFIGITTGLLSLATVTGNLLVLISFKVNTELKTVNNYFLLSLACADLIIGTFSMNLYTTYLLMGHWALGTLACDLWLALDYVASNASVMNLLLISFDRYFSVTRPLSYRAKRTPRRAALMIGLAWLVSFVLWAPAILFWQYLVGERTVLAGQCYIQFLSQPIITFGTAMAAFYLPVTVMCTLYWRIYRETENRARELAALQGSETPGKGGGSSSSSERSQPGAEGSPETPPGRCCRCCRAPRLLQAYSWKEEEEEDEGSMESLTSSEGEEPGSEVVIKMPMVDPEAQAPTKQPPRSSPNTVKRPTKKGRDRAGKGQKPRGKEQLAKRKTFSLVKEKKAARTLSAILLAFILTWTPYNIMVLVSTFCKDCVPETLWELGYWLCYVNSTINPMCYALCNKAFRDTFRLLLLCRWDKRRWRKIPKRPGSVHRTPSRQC
# D-3-phosphoglycerate dehydrogenase (Homo sapiens), sequence (O43175 whole entry, the tested form may be a part): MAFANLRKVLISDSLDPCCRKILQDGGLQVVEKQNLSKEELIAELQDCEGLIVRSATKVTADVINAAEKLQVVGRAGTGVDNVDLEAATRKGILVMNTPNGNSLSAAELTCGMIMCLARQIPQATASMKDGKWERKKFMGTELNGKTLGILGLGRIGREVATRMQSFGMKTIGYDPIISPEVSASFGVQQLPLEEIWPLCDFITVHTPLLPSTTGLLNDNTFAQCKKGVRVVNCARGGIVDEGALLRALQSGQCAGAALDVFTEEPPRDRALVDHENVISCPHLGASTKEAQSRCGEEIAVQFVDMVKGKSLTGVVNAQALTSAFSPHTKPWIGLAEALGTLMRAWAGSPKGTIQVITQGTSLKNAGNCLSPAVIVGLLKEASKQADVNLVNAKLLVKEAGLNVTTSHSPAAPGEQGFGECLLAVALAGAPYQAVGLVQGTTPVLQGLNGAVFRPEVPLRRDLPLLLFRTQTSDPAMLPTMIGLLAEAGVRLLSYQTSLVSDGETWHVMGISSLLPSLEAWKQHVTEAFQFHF
# Angiotensin-converting enzyme (Homo sapiens), sequence (P12821 whole entry): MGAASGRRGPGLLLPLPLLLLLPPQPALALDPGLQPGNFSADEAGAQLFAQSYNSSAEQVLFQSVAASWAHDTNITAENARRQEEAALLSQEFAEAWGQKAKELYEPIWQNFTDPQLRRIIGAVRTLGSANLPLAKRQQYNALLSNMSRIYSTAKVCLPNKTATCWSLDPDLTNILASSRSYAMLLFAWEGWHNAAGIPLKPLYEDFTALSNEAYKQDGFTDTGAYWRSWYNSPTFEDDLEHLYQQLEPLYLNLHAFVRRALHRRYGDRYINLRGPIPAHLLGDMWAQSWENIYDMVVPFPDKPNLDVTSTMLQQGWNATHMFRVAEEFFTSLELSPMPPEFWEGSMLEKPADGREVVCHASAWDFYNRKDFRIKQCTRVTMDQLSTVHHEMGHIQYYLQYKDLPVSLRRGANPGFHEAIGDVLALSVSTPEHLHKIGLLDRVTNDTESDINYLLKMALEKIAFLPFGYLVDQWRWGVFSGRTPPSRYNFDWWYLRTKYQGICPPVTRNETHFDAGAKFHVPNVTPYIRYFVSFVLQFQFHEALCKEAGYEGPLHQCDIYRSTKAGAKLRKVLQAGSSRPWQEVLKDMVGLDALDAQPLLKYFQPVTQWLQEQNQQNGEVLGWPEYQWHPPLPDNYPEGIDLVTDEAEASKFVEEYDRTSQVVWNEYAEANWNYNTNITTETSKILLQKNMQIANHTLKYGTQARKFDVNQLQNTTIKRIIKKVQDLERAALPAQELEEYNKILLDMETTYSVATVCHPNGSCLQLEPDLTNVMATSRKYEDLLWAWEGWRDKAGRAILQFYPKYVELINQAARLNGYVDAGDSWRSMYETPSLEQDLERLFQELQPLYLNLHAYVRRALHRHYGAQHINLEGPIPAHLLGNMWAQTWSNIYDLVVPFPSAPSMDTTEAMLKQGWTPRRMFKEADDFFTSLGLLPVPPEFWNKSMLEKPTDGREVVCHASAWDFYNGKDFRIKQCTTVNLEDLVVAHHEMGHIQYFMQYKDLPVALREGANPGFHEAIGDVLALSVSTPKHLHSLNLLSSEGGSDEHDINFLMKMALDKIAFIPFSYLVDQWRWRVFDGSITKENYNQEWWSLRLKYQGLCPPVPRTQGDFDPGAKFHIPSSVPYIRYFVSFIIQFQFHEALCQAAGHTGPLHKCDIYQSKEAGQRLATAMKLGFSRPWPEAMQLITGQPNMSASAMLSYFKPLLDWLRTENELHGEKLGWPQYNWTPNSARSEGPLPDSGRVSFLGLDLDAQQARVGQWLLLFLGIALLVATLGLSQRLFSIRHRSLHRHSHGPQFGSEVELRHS
# Prostaglandin G/H synthase 1 (Homo sapiens), sequence (P23219 whole entry): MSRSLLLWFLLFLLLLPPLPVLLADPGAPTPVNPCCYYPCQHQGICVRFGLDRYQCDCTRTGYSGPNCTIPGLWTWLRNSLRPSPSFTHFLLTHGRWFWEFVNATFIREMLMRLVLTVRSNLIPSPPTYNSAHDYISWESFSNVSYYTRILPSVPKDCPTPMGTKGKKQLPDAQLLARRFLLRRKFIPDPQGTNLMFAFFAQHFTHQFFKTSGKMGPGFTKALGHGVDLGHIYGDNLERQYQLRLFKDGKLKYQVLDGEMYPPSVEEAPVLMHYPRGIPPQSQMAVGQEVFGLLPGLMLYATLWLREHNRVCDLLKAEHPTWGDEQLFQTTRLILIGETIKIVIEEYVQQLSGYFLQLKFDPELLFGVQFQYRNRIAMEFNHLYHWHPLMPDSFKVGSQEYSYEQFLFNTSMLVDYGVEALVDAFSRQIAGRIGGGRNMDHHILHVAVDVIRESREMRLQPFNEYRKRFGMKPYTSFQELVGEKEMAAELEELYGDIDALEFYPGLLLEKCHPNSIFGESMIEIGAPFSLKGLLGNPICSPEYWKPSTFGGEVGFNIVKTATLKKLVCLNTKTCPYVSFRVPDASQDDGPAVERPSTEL
# Tyrosine-protein kinase Lck (Homo sapiens), sequence (P06239 2-509 limits assumed): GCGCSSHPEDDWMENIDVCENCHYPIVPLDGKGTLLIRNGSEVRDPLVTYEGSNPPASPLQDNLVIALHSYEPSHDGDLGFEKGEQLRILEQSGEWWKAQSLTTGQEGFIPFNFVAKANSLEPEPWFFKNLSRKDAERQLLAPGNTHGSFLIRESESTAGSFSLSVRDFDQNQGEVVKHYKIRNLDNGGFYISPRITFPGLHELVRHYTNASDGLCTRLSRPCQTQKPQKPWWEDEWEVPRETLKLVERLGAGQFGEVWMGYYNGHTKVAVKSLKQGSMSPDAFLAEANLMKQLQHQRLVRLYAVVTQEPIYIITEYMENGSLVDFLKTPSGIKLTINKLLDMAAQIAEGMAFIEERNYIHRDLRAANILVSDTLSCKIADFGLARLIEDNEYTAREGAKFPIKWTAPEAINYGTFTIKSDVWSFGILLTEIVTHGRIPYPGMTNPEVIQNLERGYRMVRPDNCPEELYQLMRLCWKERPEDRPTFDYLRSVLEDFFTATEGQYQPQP
# Acetylcholinesterase (Homo sapiens), sequence (P22303 whole entry): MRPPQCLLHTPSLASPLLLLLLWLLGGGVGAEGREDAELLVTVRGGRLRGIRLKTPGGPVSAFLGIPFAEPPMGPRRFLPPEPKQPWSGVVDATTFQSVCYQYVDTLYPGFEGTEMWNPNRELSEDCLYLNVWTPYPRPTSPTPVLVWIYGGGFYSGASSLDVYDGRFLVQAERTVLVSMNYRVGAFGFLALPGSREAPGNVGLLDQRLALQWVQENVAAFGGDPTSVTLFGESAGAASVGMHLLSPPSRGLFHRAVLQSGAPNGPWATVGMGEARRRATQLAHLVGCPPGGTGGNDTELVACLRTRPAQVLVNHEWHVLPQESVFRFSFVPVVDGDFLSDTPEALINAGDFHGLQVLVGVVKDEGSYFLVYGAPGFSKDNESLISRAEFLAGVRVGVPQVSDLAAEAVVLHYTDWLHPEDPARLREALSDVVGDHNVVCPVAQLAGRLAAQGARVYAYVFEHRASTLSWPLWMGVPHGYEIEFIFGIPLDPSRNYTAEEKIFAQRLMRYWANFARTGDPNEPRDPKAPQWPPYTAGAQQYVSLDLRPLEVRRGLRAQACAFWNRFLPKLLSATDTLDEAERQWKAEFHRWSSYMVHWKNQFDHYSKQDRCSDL
# Monoglyceride lipase (Homo sapiens), sequence (Q99685 whole entry): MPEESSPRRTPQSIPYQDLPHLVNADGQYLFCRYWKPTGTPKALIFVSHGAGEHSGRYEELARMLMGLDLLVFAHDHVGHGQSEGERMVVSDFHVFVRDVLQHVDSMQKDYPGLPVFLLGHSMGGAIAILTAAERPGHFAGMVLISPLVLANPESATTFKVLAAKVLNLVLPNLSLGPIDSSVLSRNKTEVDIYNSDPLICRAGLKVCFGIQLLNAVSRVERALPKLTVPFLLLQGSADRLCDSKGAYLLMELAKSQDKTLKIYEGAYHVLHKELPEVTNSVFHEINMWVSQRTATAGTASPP
# 5-hydroxytryptamine receptor 1A (Homo sapiens), sequence (P08908 whole entry): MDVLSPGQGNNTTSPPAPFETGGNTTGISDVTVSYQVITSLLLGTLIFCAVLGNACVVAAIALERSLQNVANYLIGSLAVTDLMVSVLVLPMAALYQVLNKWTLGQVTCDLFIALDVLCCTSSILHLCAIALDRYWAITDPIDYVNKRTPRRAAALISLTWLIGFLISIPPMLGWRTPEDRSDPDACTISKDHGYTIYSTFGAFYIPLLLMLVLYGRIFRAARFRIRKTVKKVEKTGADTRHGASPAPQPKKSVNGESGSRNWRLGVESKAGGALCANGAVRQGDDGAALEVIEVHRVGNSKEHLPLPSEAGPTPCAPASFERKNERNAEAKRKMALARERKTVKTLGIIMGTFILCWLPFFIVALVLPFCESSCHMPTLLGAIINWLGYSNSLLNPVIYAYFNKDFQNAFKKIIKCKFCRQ
smiles,measurement,setting,value
O=C(NNC(=S)Nc1ccc(Cl)c(Cl)c1)c1ccccc1O,inhibition,[1],Active
same,inhibition,[2],< 30%
same,inhibition,[3],< 30%
same,inhibition,[4],Active
same,inhibition,[5],< 30%
same,inhibition,[6],< 30%
same,inhibition,[7],Active
same,inhibition,[8],< 30%
same,inhibition,[9],< 30%
same,inhibition,[10],< 30%
same,inhibition,[11],< 30%
same,inhibition,[12],< 30%
same,inhibition,[13],< 30%
same,inhibition,[14],< 30%
same,Vmax/Km,[15],4.69 min⁻¹
same,inhibition,[16],< 30%
same,Vmax/Km,[17],0.33 min⁻¹
same,Activity,[18],Active
same,MIC,[19],inactive
same,inhibition,[20],< 30%
same,inhibition,[21],< 30%
same,Vmax/Km,[22],6.93 min⁻¹
same,MIC,[23],inactive
same,inhibition,[24],< 30%
same,Vmax/Km,[25],0.1 min⁻¹
same,inhibition,[26],> 30%
